Experimental data as given in US7004171B2, “System for transvaginal drug delivery” (Hi-Gienic Intra Vaginal Technologies Ltd., priority 2002, dated 2006).

Settings: Sorensen buffer pH 7.4, 37° C., 24 hours agitation, excess drug
Text: The release medium used for these experiments was the Sorensen-Walbum buffer, chosen here due to its lack of absorbance in the UV range, thus causing less interference with the analytical drug detection process. The buffer consisted of glycine (0.1 M) and NaCl (0.1 M), adjusted to pH 7.4 with NaOH (0.1M).

SMILES: CC(C)Cc1ccc(C(C)C(=O)O)cc1 (stereo not shown) [Ibuprofen]
- saturation concentration: 100 µg/mL
